Laboratory results: paper PMC10545790
Converted amounts (≈) assume the structure as drawn. “And” between values parts separate entries of the source, which are not always exact repeats. Identical values can stand only once. “Also recorded” adds a separate entry of the source. Like-named read-outs stand apart in the source and are kept apart here. One block for each molecule: values may come before it.

What was measured:
[1] = Determination of pKa values (potentiometric titration); assay type: physicochemical; conditions: methanol-water (1:4) solution of NaCl; titration method; potentiometric acid-base titration at 25 °C in methanol-water (1:4), 150 mM NaCl; read-out: pKa (exp.)
Method: Data is obtained by the titration method. Para-methyl benzoic acid (83) is used as a reference. TEXT PRINTED IN THE PICTURE: 83: pKa (exp.): 4.5 ± 0.1 | 84: pKa (exp.): 5.6 ± 0.1 | 47: pKa (exp.): 4.4 ± 0.1 | 54: pKa (exp.): 4.1 ± 0.1 […]
Determination of pKa values
The tendency of a compound to donate proton is measured as its acid ionization constant (dissociation constant), or Ka. A more practical scale of representing acidity is pKa which is the negative logarithm of the Ka (pKa = -log Ka). pKa of a test article is determined by pH-metric method based on potentiometric acid-base titration at 25 °C. The test compounds are dissolved in acidified methanol-water (1:4) solution of NaCl (150 mM, pH 2) and slowly titrated with 0.3 M sodium hydroxide methanol-water (1:4) solution, while recording pH of the solution as a function of NaOH volume used during the titration (construction of the titration curve). Titration of acidified NaCl solution in absence of any compounds is used for blank plotting.5-8 Buffering capacity is calculated in each point of titration curve as the ratio of the NaOH flow (constant) to the pH rise velocity. The pKa value is determined from resulting plot of buffering capacity versus pH as the maximum of buffering capacity. pH-metric method allows to measure pKas in the range of approximately between 2 and 12. […]
meter, pHi®510 (Beckman Coulter, Canada; Cat# A58734). Data analysis was done using GraphPad […]
Sodium hydroxide (Enamine, Ukraine; CAS # 1310-73-2)
Sodium chloride BioXtra, ≥99.5% (AT) (Sigma-Aldrich, USA; Cat # S7653)
Hydrochloric acid (Enamine, Ukraine; CAS # 7647-01-0)
Disposable pipette tips (Eppendorf, German; Matrix and Finntip, Thermo, USA) Polypropylene graduated conical tubes, 50 mL (Kartell, Italy; Cat. # 84002) Polypropylene syringe (10 mL) with tubing (Hemoplast, Ukraine) […]
pH-meter, pHi®510 (Beckman Coulter, Canada; Cat# A58734)
Multichannel Electronic Pipettes 5-50 µL, 10-1000 µL (Thermo, USA)
Magnetic stirrer standard unit (IKA, USA)
Syringe Driver Mdl 100 (KDScientific, USA)

human liver microsomes = assay: Metabolic stability in human liver microsomes; conditions: human liver microsomes
[2] = Metabolic stability in human liver microsomes; conditions: both, human, liver microsomes (pooled)
[3] = Kinetic solubility in phosphate-buffered saline, pH 7.4; conditions: 25 °C, pH 7.4, aqueous buffer, kinetic from dmso stock
physchem = conditions: pH 7.4, logD (7.4): experimental distribution coefficient in n-octanol/phosphate-buffered saline
ABL1 kinase = ABL1 kinase (Homo sapiens, UniProt P00519); conditions: for Luminescence, Raw Data (LUM): ADP-Glo
ABL1 kinase, sequence (P00519 whole entry): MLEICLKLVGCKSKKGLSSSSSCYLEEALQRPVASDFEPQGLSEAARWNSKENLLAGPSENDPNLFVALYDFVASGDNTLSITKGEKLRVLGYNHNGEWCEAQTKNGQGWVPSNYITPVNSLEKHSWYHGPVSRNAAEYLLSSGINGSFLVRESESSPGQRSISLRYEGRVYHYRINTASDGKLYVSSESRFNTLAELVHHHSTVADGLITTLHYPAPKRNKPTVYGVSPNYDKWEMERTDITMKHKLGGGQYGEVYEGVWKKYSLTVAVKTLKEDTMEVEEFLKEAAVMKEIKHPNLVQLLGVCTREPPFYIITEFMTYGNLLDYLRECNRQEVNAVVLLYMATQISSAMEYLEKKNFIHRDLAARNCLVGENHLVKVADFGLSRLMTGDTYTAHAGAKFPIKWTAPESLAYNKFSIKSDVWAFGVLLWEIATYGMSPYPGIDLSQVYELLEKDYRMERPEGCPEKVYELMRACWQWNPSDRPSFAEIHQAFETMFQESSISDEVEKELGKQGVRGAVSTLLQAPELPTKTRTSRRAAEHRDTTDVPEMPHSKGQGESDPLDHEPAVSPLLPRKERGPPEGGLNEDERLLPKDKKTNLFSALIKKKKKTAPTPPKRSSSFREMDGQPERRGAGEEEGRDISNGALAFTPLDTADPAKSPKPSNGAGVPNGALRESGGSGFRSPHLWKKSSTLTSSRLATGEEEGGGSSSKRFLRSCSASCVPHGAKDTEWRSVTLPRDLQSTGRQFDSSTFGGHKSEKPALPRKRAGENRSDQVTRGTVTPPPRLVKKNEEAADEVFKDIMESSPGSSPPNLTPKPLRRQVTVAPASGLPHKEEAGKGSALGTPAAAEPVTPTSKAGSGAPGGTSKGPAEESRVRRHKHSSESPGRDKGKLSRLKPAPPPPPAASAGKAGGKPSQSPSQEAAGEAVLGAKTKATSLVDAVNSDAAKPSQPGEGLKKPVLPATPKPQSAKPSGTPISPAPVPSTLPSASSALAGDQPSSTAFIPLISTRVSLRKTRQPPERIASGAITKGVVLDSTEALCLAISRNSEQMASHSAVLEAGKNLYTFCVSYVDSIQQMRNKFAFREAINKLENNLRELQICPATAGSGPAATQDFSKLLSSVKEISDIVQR

[4] = Thermal and chemical stability; assay type: physicochemical
Excerpt: We also examined the thermal and chemical stability of the synthesized 2-oxabicyclo[2.2.2]octanes. As representative examples, we selected three molecules: isomeric acids 47, 54, and amine 52. All 2-oxabicyclo[2.2.2]octanes were crystalline solids that were stable in air. We stored them in stock at room temperature in closed vials and observed no changes according to ^1H NMR after one year. […] Treatment of the selected 2-oxabicyclo[2.2.2]octanes with aq. 1 M HCl, or aq.

pKa [1]: 4.5
Structure (SMILES): Cc1ccc(C(=O)O)cc1 [Compound 83, para-methyl benzoic acid, reference compound]

pKa [1]: 5.6
Structure (SMILES): CC12CCC(C(=O)O)(CC1)CC2 [Compound 84, reference compound]

CLint (human liver microsomes): 16
t1/2: half-time of a metabolic decomposition (human liver microsomes; 2 μM compound, NADPH, 37 °C): ~1.785 h
k el at 2 µM ([2]; pH 7.4): ~0.0001 s⁻¹
microsomal CLint at 2 µM ([2]; pH 7.4): 16 µL/min/mg
remaining at 40 min, 2 µM ([2]; pH 7.4, % Remaining without cofactor, Mean of 2, human liver microsomes, NADPH-cofactor system substituted with phosphate buffer): 106%
remaining at 7 min, 2 µM ([2]; pH 7.4, % Remaining, Mean of 2, human liver microsomes with NADPH, 7 min): 100%
remaining at 0.25 h, 2 µM ([2]; pH 7.4, % Remaining, Mean of 2, human liver microsomes with NADPH, 15 min): 96%
remaining at 25 min, 2 µM ([2]; pH 7.4, % Remaining, Mean of 2, human liver microsomes with NADPH, 25 min): 81%
remaining at 40 min, 2 µM ([2]; pH 7.4, % Remaining, Mean of 2, human liver microsomes with NADPH): 81%
half-life at 2 µM ([2]; pH 7.4, t1/2: half-time of a metabolic decomposition, human liver microsomes, 2 μM compound, NADPH, 37 °C): 1.78 h
solubility kinetic at 2 h [3]: 113 µM (≈ 59.4 µg/mL)
logD (physchem): 2.7
Luminescence, Raw Data (LUM) (ABL1 kinase; 1st run, plate ABL1_CpdsTitr_Read1, single wells, compound 15 nM): 2281 and 2169
Luminescence, Raw Data (LUM) (ABL1 kinase; 1st run, plate ABL1_CpdsTitr_Read1, single wells, compound 29 nM): 2495 and 2464
Luminescence, Raw Data (LUM) (ABL1 kinase; 1st run, plate ABL1_CpdsTitr_Read1, single wells, compound 59 nM): 2134 and 2384
Luminescence, Raw Data (LUM) (ABL1 kinase; 1st run, plate ABL1_CpdsTitr_Read1, single wells, compound 117 nM): 2291 and 2227
Luminescence, Raw Data (LUM) (ABL1 kinase; 1st run, plate ABL1_CpdsTitr_Read1, single wells, compound 234 nM): 1059 and 1099
Luminescence, Raw Data (LUM) (ABL1 kinase; 1st run, plate ABL1_CpdsTitr_Read1, single wells, compound 469 nM): 1247 and 1531
Luminescence, Raw Data (LUM) (ABL1 kinase; 1st run, plate ABL1_CpdsTitr_Read1, single wells, compound 938 nM): 1347 and 1294
Luminescence, Raw Data (LUM) (ABL1 kinase; 1st run, plate ABL1_CpdsTitr_Read1, single wells, compound 1500 nM): 981 and 1352
Luminescence, Raw Data (LUM) (ABL1 kinase; 1st run, plate ABL1_CpdsTitr_Read1, single wells, compound 1875 nM): 1222 and 1248
Luminescence, Raw Data (LUM) (ABL1 kinase; 1st run, plate ABL1_CpdsTitr_Read1, single wells, compound 3000 nM): 1174 and 1245
Luminescence, Raw Data (LUM) (ABL1 kinase; 1st run, plate ABL1_CpdsTitr_Read1, single wells, compound 3750 nM): 1755 and 1091
Luminescence, Raw Data (LUM) (ABL1 kinase; 1st run, plate ABL1_CpdsTitr_Read1, single wells, compound 7500 nM): 1238 and 1673
Luminescence, Raw Data (LUM) (ABL1 kinase; 2nd run, plate ABL1_CpdsTitr2_Read1, single wells, compound 15 nM): 4011 and 3702 and 3072 and 2792
Luminescence, Raw Data (LUM) (ABL1 kinase; 2nd run, plate ABL1_CpdsTitr2_Read1, single wells, compound 59 nM): 6124 and 5895 and 5335 and 5300
Luminescence, Raw Data (LUM) (ABL1 kinase; 2nd run, plate ABL1_CpdsTitr2_Read1, single wells, compound 117 nM): 6960 and 7005 and 6427 and 6079
Luminescence, Raw Data (LUM) (ABL1 kinase; 2nd run, plate ABL1_CpdsTitr2_Read1, single wells, compound 234 nM): 5660 and 5387 and 5152 and 5142
Luminescence, Raw Data (LUM) (ABL1 kinase; 2nd run, plate ABL1_CpdsTitr2_Read1, single wells, compound 469 nM): 5734 and 5920 and 6125 and 5475
Luminescence, Raw Data (LUM) (ABL1 kinase; 2nd run, plate ABL1_CpdsTitr2_Read1, single wells, compound 938 nM): 6593 and 6264 and 5955 and 5731
Luminescence, Raw Data (LUM) (ABL1 kinase; 2nd run, plate ABL1_CpdsTitr2_Read1, single wells, compound 1500 nM): 5936 and 5810 and 4992 and 5316
Luminescence, Raw Data (LUM) (ABL1 kinase; 2nd run, plate ABL1_CpdsTitr2_Read1, single wells, compound 1875 nM): 6498 and 6064 and 6232 and 5788
Luminescence, Raw Data (LUM) (ABL1 kinase; 2nd run, plate ABL1_CpdsTitr2_Read1, single wells, compound 3000 nM): 4358 and 4452 and 3565 and 4254
Luminescence, Raw Data (LUM) (ABL1 kinase; 2nd run, plate ABL1_CpdsTitr2_Read1, single wells, compound 3750 nM): 5848 and 6030 and 5487 and 5693
Luminescence, Raw Data (LUM) (ABL1 kinase; 2nd run, plate ABL1_CpdsTitr2_Read1, single wells, compound 7500 nM): 5593 and 5845 and 6001 and 5417
Structure (SMILES): Cc1ccc(NC(=O)C23CCC(CN4CCN(C)CC4)(CC2)CC3)cc1Nc1nccc(-c2cccnc2)n1 [Compound 86]
inhibitory effect on the catalytic activity of ABL1 kinase (in words) (ABL1 kinase; ADP-Glo Kinase Assay, 12 concentration points): did not observe any significant inhibitory effect; also recorded: inactive

chemical stability in acid ([4]; aq. 1 M HCl, room temperature, 1 h): no decomposition
chemical stability in base ([4]; aq. 1 M NaOH, room temperature, 1 h): no decomposition
thermal stability ([4]; heating at 100 °C for five minutes): remained stable
stability on storage ([4]; in air, room temperature, closed vials, one year, 1H NMR): no changes
pKa [1]: 4.1
Structure (SMILES): CC12CCC(C(=O)O)(CC1)OC2 [Compound 54]
